Common to all, as to assay type: in vivo
For assay [1], the system named is A. retroflexus. In words: Herbicidal activity by field soil treatment (Test example 2). Also noted: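 index 0 to 10 in 10% steps of herbicidal effect with 10 meaning complete death and 0 below 10%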. The conditions noted are these: 1000 g effective component per hectare, day 21 after the treatment. A digest of the protocol: (§1)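 A wettable powder formulation, diluted with water, is applied to soil over just-sown seeds at an effective rate of 1000 g/ha. Effects are judged 21 days later after greenhouse growth.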

The subject of assay [2] is Indian millet. The assay is described as above. Also noted: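 index 0 to 10 in 10% steps of herbicidal effect with 10 meaning complete death and 0 below 10%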. The conditions noted are these: 1000 g effective component per hectare, day 21 after the treatment. The method in brief: as §1
The test system of assay [3] is Echinochloa crus-galli. Described as above. Also noted: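 index 0 to 10 in 10% steps of herbicidal effect with 10 meaning complete death and 0 below 10%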. The following applies: 1000 g effective component per hectare, day 21 after the treatment. The method in brief: as §1
For assay [4], the system named is A. retroflexus. Put plainly: Herbicidal activity by field foliage treatment (Test example 3). Also noted: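 index 0 to 10 in 10% steps of herbicidal effect with 10 meaning complete death and 0 below 10%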. The conditions noted are these: 1000 g effective component per hectare, day 14 after the treatment. A digest of the protocol:
(§2)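 Test plants, grown from seed for two weeks in a greenhouse, are treated by foliar application of a wettable-powder formulation in water at a rate of 1000 g effective component per hectare. Damage is assessed 14 days later.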

The test system of assay [5] is Indian millet. The assay is described as above. Details: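 index 0 to 10 in 10% steps of herbicidal effect with 10 meaning complete death and 0 below 10%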. The following applies: 1000 g effective component per hectare, day 14 after the treatment. A digest of the protocol: as §2
Assay [6] concerns Setaria viridis. The description is as above. The following applies: 1000 g effective component per hectare, day 14 after the treatment. The method in brief:
(§3)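 Potted field-soil plants grown 2 weeks in a greenhouse were sprayed over the whole foliage with diluted wettable powder at 1000 L/ha, delivering 1000 g active ingredient per hectare. Herbicidal effect scored by visual criteria 14 days after treatment.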

The subject of assay [7] is foxtail. Put plainly: Herbicidal activity by field soil treatment (Test example 2). The conditions noted are these: 1000 g effective component per hectare, day 21 after the treatment. A digest of the protocol: as §1
In assay [8] the test system is Scirpus juncoides Rocxb. In words: Herbicidal activity by paddy field soil treatment (Test Example 1). The conditions noted are these: applied on water surface, 1000 g of effective component per hectare, day 21 after the treatment. Details: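 index 0 to 10 in 10% steps of herbicidal effect with 10 meaning complete death and 0 below 10%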. The method in brief: (§4)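 Flooded-paddy pre-emergence assay at 1000 g a.i./ha, applied to the water surface one day after sowing; visual herbicidal score at day 21 in greenhouse.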

Assay [9] has as its system Monochoria vaginalis. The assay is described as above. Details: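 index 0 to 10 in 10% steps of herbicidal effect with 10 meaning complete death and 0 below 10%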. The following applies: 1000 g of effective component per hectare, evaluated on day 21 after the treatment, criteria of Table 72. A digest of the protocol:
as §4

Assay [10] deals with Echinochloa oryzicola. The description is as above. The following applies: 1000 g of effective component per hectare, evaluated on day 21 after the treatment, criteria of Table 72. Details: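 index 0 to 10 in 10% steps of herbicidal effect with 10 meaning complete death and 0 below 10%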. The method in brief:
as §4

The test system of assay [11] is Echinochloa crus-galli. Put plainly: Herbicidal activity by field foliage treatment (Test example 3). Details: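 index 0 to 10 in 10% steps of herbicidal effect with 10 meaning complete death and 0 below 10%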. The conditions noted are these: 1000 g effective component per hectare, day 14 after the treatment. A digest of the protocol:
as §3

SMILES strings stand for the structures.

Consider twelve compounds from patent publication US8969554B2, “6-acyl-1,2,4-triazine-3,5-dione derivative and herbicides” (Kumiai Chemical Industry Co., Ltd., priority 2010, dated 2015).
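Wherever herbicidal effect index, Setaria viridis is given: index 0 to 10 in 10% steps of herbicidal effect with 10 meaning complete death and 0 below 10%.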

For the compound `Cc1ccc(-n2c(=O)c(C(=O)C3=C(O)CCCC3=O)nn(C)c2=O)cc1F` [I-105], the “herbicidal effect index, Amaranthus retroflexus” value in assay [1] and in [4] was 10 each time. The “herbicidal effect index, Abutilon theophrasti” value in [2] stood at 9; in [5], 10. For the same compound, the results for the “herbicidal effect index, Echinochloa crus-galli” value in [3] and in [11] were 9 and 10, respectively. The “herbicidal effect index, Setaria viridis” value in assay [6] and in assay [7] was 7 throughout. In assay [8], the “herbicidal effect index, S. juncoides Rocxb.” value is listed as 10. Further, the “Herbicidal effects index number, Monochoria vaginalis” value in assay [9] is 10. Also, the “Herbicidal effects index number, Echinochloa oryzicola” value in [10] is given as 10.

Consider `Cc1ccc(F)c(-n2c(=O)c(C(=O)C3=C(O)CCCC3=O)nn(C)c2=O)c1` [I-109], for which the “herbicidal effect index, Amaranthus retroflexus” value in assay [1] is recorded as 10; in assay [4], 9. Also, the “herbicidal effect index, Abutilon theophrasti” value was 10 in assay [2] and 9 in assay [5]. Moreover, the “herbicidal effect index, Echinochloa crus-galli” value in [3] is 9; in assay [11], 10. Further, the “herbicidal effect index, Setaria viridis” value in assay [6] is 7; in assay [7], 6. The “herbicidal effect index, S. juncoides Rocxb.” value in assay [8] was found to be 10. Moreover, the “Herbicidal effects index number, Monochoria vaginalis” value in assay [9] was found to be 10. Further, the “Herbicidal effects index number, Echinochloa oryzicola” value in assay [10] is given as 10.

Regarding `Cc1c(F)cccc1-n1c(=O)c(C(=O)C2=C(O)CCCC2=O)nn(C)c1=O` [I-116], the “herbicidal effect index, Amaranthus retroflexus” value in assay [1] came to 10; in [4] it was 8. Also, the entries for the “herbicidal effect index, Abutilon theophrasti” value in [2] and in assay [5] were 10 and 9, respectively. Also, the “herbicidal effect index, Echinochloa crus-galli” value in assay [3] is 10; in [11], 9. Also, the “herbicidal effect index, Setaria viridis” value in assay [6] and in assay [7] was 9 each time. The “herbicidal effect index, S. juncoides Rocxb.” value in assay [8] is reported as 10. In [9], the “Herbicidal effects index number, Monochoria vaginalis” value worked out at 10. The “Herbicidal effects index number, Echinochloa oryzicola” value in [10] came to 10.

Turning to `Cc1cc(F)ccc1-n1c(=O)c(C(=O)C2=C(O)CCCC2=O)nn(C)c1=O` [I-117], the “herbicidal effect index, Amaranthus retroflexus” value in assay [1] stood at 10; in assay [4], 8. The “herbicidal effect index, Abutilon theophrasti” value in assay [2] is recorded as 10; in assay [5], 9. Further, the “herbicidal effect index, Echinochloa crus-galli” value is recorded as 10 in [3] and 9 in [11]. Further, the “herbicidal effect index, Setaria viridis” value in assay [6] amounted to 9; in [7] it was 7. For the same compound, the “herbicidal effect index, S. juncoides Rocxb.” value in assay [8] turned out to be 10. In assay [9], the “Herbicidal effects index number, Monochoria vaginalis” value is recorded as 10. Further, in [10], the “Herbicidal effects index number, Echinochloa oryzicola” value came to 10.

For `Cc1ccc(F)cc1-n1c(=O)c(C(=O)C2=C(O)CCCC2=O)nn(C)c1=O` [I-118], the “herbicidal effect index, Amaranthus retroflexus” value in assay [1] and in [4] was 10 each time. Further, the “herbicidal effect index, Abutilon theophrasti” value in assay [2] was 9; in assay [5], 10. In addition, the “herbicidal effect index, Echinochloa crus-galli” value in assay [3] turned out to be 10; in assay [11] it was 9. Moreover, the “herbicidal effect index, Setaria viridis” value in [6] is recorded as 10; in assay [7], 9. For the same compound, the “herbicidal effect index, S. juncoides Rocxb.” value in assay [8] stood at 10. In addition, the “Herbicidal effects index number, Monochoria vaginalis” value in assay [9] came to 10. The “Herbicidal effects index number, Echinochloa oryzicola” value in [10] was 10.

Take `Cc1cccc(-n2c(=O)c(C(=O)C3=C(O)CCCC3=O)nn(C)c2=O)c1Cl` [I-127]: the “herbicidal effect index, Amaranthus retroflexus” value in [1] and in [4] was 10 each time. Besides, the “herbicidal effect index, Abutilon theophrasti” value was determined as 10 in assay [2] and 9 in assay [5]. Besides, the “herbicidal effect index, Echinochloa crus-galli” value in [3] and in assay [11] was 10 each time. For the same compound, the “herbicidal effect index, Setaria viridis” value in assay [6] was determined as 10; in assay [7], 8. In assay [8], the “herbicidal effect index, S. juncoides Rocxb.” value was determined as 10. Besides, the “Herbicidal effects index number, Monochoria vaginalis” value in [9] came out at 10. Moreover, the “Herbicidal effects index number, Echinochloa oryzicola” value in assay [10] is on record as 10.

As for `Cc1ccc(-n2c(=O)c(C(=O)C3=C(O)CCCC3=O)nn(C)c2=O)c(Cl)c1` [I-128], the “herbicidal effect index, Amaranthus retroflexus” value in [1] and in [4] was 10 throughout. Besides, the “herbicidal effect index, Abutilon theophrasti” value in assay [2] and in assay [5] was 10 each time. Moreover, the entries for the “herbicidal effect index, Echinochloa crus-galli” value in assay [3] and in assay [11] were 8 and 9, respectively. Further, the “herbicidal effect index, Setaria viridis” value is reported as 10 in assay [6] and 9 in assay [7]. Moreover, the “herbicidal effect index, S. juncoides Rocxb.” value in assay [8] worked out at 10. The “Herbicidal effects index number, Monochoria vaginalis” value in assay [9] is 9. In addition, the “Herbicidal effects index number, Echinochloa oryzicola” value in assay [10] came out at 8.

Take `Cc1ccc(Cl)c(-n2c(=O)c(C(=O)C3=C(O)CCCC3=O)nn(C)c2=O)c1` [I-129]: the “herbicidal effect index, Amaranthus retroflexus” value in [1] and in assay [4] was 10 throughout. Moreover, the figures for the “herbicidal effect index, Abutilon theophrasti” value in [2] and in assay [5] were 10 and 9, respectively. Besides, the “herbicidal effect index, Echinochloa crus-galli” value is given as 9 in assay [3] and 10 in assay [11]. Moreover, the “herbicidal effect index, Setaria viridis” value in assay [6] is reported as 9; in [7], 10. Also, the “herbicidal effect index, S. juncoides Rocxb.” value in assay [8] was determined as 10. In addition, in [9], the “Herbicidal effects index number, Monochoria vaginalis” value is 10. The “Herbicidal effects index number, Echinochloa oryzicola” value in assay [10] is given as 10.

On to `COc1ccc(Cl)cc1-n1c(=O)c(C(=O)C2=C(O)CCCC2=O)nn(C)c1=O` [I-134], for which the “herbicidal effect index, Amaranthus retroflexus” value in assay [1] and in assay [4] was 10 each time. In addition, the “herbicidal effect index, Abutilon theophrasti” value in assay [2] and in assay [5] was 10 in each case. Besides, the “herbicidal effect index, Echinochloa crus-galli” value in assay [3] and in assay [11] was 10 throughout. In addition, the “herbicidal effect index, Setaria viridis” value in [6] and in [7] was 10 each time. Further, the “herbicidal effect index, S. juncoides Rocxb.” value in [8] is recorded as 10. The “Herbicidal effects index number, Monochoria vaginalis” value in assay [9] was found to be 10. The “Herbicidal effects index number, Echinochloa oryzicola” value in assay [10] came to 10.

As to `Cc1cc(Cl)ccc1-n1c(=O)c(C(=O)C2=C(O)CCCC2=O)nn(C)c1=O` [I-137], the “herbicidal effect index, Amaranthus retroflexus” value in [1] and in assay [4] was 10 in each case. Further, the “herbicidal effect index, Abutilon theophrasti” value in assay [2] and in [5] was 10 throughout. The “herbicidal effect index, Echinochloa crus-galli” value in assay [3] and in [11] was 10 in each case. In addition, the results for the “herbicidal effect index, Setaria viridis” value in assay [6] and in assay [7] were 10 and 9, respectively. Moreover, the “herbicidal effect index, S. juncoides Rocxb.” value in assay [8] is reported as 10. Besides, in [9], the “Herbicidal effects index number, Monochoria vaginalis” value is 10. For the same compound, in assay [10], the “Herbicidal effects index number, Echinochloa oryzicola” value came out at 10.

Regarding `COc1cc(-n2c(=O)c(C(=O)C3=C(O)CCCC3=O)nn(C)c2=O)cc(OC)c1OC` [I-169], the figures for the “herbicidal effect index, Amaranthus retroflexus” value in assay [1] and in assay [4] were 10 and 8, respectively. For the same compound, the “herbicidal effect index, Abutilon theophrasti” value in [2] and in assay [5] was 9 each time. The entries for the “herbicidal effect index, Echinochloa crus-galli” value in assay [3] and in [11] were 10 and 9, respectively. Moreover, the entries for the “herbicidal effect index, Setaria viridis” value in assay [6] and in [7] were 9 and 10, respectively. Moreover, in [8], the “herbicidal effect index, S. juncoides Rocxb.” value was found to be 10. For the same compound, the “Herbicidal effects index number, Monochoria vaginalis” value in assay [9] amounted to 10. Further, the “Herbicidal effects index number, Echinochloa oryzicola” value in assay [10] is given as 10.

On to `Cn1nc(C(=O)C2=C(O)CCCC2=O)c(=O)n(-c2ccccn2)c1=O` [I-179], for which the “herbicidal effect index, Amaranthus retroflexus” value in assay [1] is given as 9; in [4], 10. In addition, the “herbicidal effect index, Abutilon theophrasti” value in assay [2] and in assay [5] was 10 each time. For the same compound, the “herbicidal effect index, Echinochloa crus-galli” value in assay [3] and in assay [11] was 10 in each case. Also, the “herbicidal effect index, Setaria viridis” value in [6] and in assay [7] was 10 each time. The “herbicidal effect index, S. juncoides Rocxb.” value in assay [8] was determined as 10. In addition, the “Herbicidal effects index number, Monochoria vaginalis” value in [9] is on record as 10. Also, the “Herbicidal effects index number, Echinochloa oryzicola” value in assay [10] is 10.
